One molecule from ChEMBL document CHEMBL2311447, “Cynaropicrin from Cynara scolymus L. suppresses photoaging of skin by inhibiting the transcription activity of nuclear factor-kappa B” (2013) can be followed below.

Molecules are shown by their SMILES. The source made the active and inactive calls. The rule behind the calls is not given here.

Experiment [1] concerns Mus musculus. In words: Antiphotoaging activity in DBA-2 mouse assessed as reduction of UVB-induced melanocyte proliferation in ear tissue at 92.4 to 462.2 mg/kg, po as powder qd for 12 days relative to untreated control. The class given is functional. As to conditions: dose mg/kg 92.4-462.2.
The target in experiment [2] is Transcription factor p65 (Homo sapiens) (UniProt Q04206). In words: Inhibition of NF-kappaB-65 (unknown origin) expressed in human keratinocytes assessed as inhibition of bFGF production at 4 uM by EIA. The class given is cell-based.
The target is the same in experiment [3]. Description: Inhibition of NF-kappaB-65 (unknown origin) expressed in TNFalpha-stimulated HEK293 cells assessed inhibition of nuclear translocation at 8 uM after 3 hrs. The class given is cell-based.
Experiment [4] has the same target. In words: Inhibition of NF-kappaB-65 (unknown origin)-mediated transactivation in TNFalpha-stimulated HEK293 cells assessed inhibition of I-kappaB phosphorylation and degradation after 24 hrs. It is filed as cell-based.
Experiment [5] has the same target. Description: Inhibition of NF-kappaB p65 expressed in human keratinocytes co-cultured with human epidermal melanocytes assessed as inhibition of melanocyte proliferation at 4 uM by WST-1 assay. The class given is cell-based.
Experiment [6] has the same target. In words: Inhibition of NF-kappaB-65 (unknown origin) expressed in human dermal fibroblasts assessed as inhibition of MMP1 production at 4 uM by EIA.
The subject of experiment [7] is HEK293. Description: Inhibition of NF-kappaB (unknown origin) expressed in TNFalpha-stimulated HEK293 cells expressing pGL3-Luc assessed inhibition of transactivation activity after 24 hrs by luciferase assay. The class given is cell-based. The note with it: Homo sapiens.
For experiment [8], the system named is Mus musculus. In words: Antiphotoaging activity in DBA-2 mouse assessed as reduction of UVB-induced epidermal hyperproliferation in ear tissue at 462.2 mg/kg, po as powder qd for 12 days relative to untreated control. It is filed as functional.
The subject of experiment [9] is Mus musculus. Description: Antiphotoaging activity in DBA-2 mouse assessed as reduction of UVB-induced epidermal hyperproliferation in ear tissue at 92.4 mg/kg, po as powder qd for 12 days relative to untreated control. It is filed as functional, organism-based. Further details: dose 92.4 mg/kg.
The test system of experiment [10] is Mus musculus. In words: Antiphotoaging activity in DBA-2 mouse assessed as reduction of UVB-induced PCNA-positive cell in ear tissue at 92.4 to 462.2 mg/kg, po as powder qd for 12 days. It is filed as functional, organism-based.
Experiment [11] concerns Mus musculus. In words: Antiphotoaging activity in DBA-2 mouse assessed as reduction of UVB-induced epidermal hyperproliferation in ear tissue administered as po as powder qd for 12 days relative to untreated control. The class given is functional, organism-based.

Chain of Transcription factor p65 (Homo sapiens) (Q04206 whole entry): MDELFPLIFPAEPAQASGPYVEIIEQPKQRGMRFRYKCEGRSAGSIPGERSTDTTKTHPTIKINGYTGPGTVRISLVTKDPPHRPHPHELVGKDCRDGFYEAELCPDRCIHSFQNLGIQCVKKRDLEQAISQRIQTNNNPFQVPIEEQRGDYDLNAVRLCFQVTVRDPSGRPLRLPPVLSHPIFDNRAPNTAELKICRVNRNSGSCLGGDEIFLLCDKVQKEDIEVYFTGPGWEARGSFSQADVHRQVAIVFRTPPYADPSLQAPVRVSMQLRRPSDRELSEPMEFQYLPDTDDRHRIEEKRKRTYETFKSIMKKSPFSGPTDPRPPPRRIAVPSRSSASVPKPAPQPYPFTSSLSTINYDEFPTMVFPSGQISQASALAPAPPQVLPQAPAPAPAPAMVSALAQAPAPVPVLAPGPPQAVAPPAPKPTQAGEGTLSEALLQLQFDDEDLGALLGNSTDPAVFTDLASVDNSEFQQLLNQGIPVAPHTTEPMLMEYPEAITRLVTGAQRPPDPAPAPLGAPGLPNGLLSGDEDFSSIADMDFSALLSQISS

With `C=C(CO)C(=O)O[C@H]1CC(=C)[C@@H]2C[C@H](O)C(=C)[C@@H]2[C@H]2OC(=O)C(=C)[C@@H]21` [CYNAROPICRIN], the “fold change (FC)” value worked out at 4.3 in experiment [1] and 1.7 in experiment [8]. In addition, the inhibition result in experiment [2], in experiment [3], in experiment [5] and in experiment [6] was “Active” throughout. Also, the inhibition result in experiment [4] and in experiment [7] was “Dose-dependent effect” throughout. Further, the result in experiment [9] was Active. Further, in experiment [10], the result was inactive. Besides, the Activity entry in [11] is “Dose-dependent effect”.
